The series has as its system CCRIS mutagenicity, Ames/micronucleus/aberration tests. The experiment in a line: CCRIS mutagenicity studies.
The mark [1] stands for this setting: Test System: AMES SALMONELLA TYPHIMURIUM, Strain/Indicator: TA98, Metabolic Activation: NONE, Method: STANDARD PLATE.
The mark [2] stands for this setting: Test System: AMES SALMONELLA TYPHIMURIUM, Strain/Indicator: TA100, Metabolic Activation: NONE, Method: STANDARD PLATE.
[3] abbreviates: Test System: AMES SALMONELLA TYPHIMURIUM, Strain/Indicator: TA98, Metabolic Activation: RAT, LIVER, S-9, AROCLOR 1254, Method: STANDARD PLATE.
The mark [4] stands for this setting: Test System: AMES SALMONELLA TYPHIMURIUM, Strain/Indicator: TA1538, Metabolic Activation: NONE, Method: STANDARD PLATE.
[5] abbreviates: Test System: AMES SALMONELLA TYPHIMURIUM, Strain/Indicator: TA1538, Metabolic Activation: RAT, LIVER, S-9, AROCLOR 1254, Method: STANDARD PLATE.

These results are taken from PubChem BioAssay AID1259407 (Chemical Carcinogenesis Research Information System (CCRIS), 2018).

Active and inactive are the calls of the source. No rule for the calls is given here.

For the compound `Cc1cccc(Br)c1`, the mutagenic call by setting is: (Test System: AMES SALMONELLA TYPHIMURIUM, Strain/Indicator: TA97, Metabolic Activation: HAMSTER, LIVER, S-9, AROCLOR 1254 (10%), Method: PREINCUBATION) “inactive; negative”; (Test System: AMES SALMONELLA TYPHIMURIUM, Strain/Indicator: TA97, Metabolic Activation: HAMSTER, LIVER, S-9, AROCLOR 1254 (30%), Method: PREINCUBATION) “inactive; negative”; (Test System: AMES SALMONELLA TYPHIMURIUM, Strain/Indicator: TA97, Metabolic Activation: NONE, Method: PREINCUBATION) “inactive; negative”; (Test System: AMES SALMONELLA TYPHIMURIUM, Strain/Indicator: TA97, Metabolic Activation: RAT, LIVER, S-9, AROCLOR 1254 (10%), Method: PREINCUBATION) “inactive; negative”; (Test System: AMES SALMONELLA TYPHIMURIUM, Strain/Indicator: TA97, Metabolic Activation: RAT, LIVER, S-9, AROCLOR 1254 (30%), Method: PREINCUBATION) “inactive; negative”; (Test System: AMES SALMONELLA TYPHIMURIUM, Strain/Indicator: TA98, Metabolic Activation: HAMSTER, LIVER, S-9, AROCLOR 1254 (10%), Method: PREINCUBATION) “inactive; negative”. The mutagenic call (Test System: AMES SALMONELLA TYPHIMURIUM, Strain/Indicator: TA98, Metabolic Activation: HAMSTER, LIVER, S-9, AROCLOR 1254 (30%), Method: PREINCUBATION) was “inactive; negative”; the mutagenic call (Test System: AMES SALMONELLA TYPHIMURIUM, Strain/Indicator: TA98, Metabolic Activation: NONE, Method: PREINCUBATION) was “inactive; negative”; the mutagenic call (Test System: AMES SALMONELLA TYPHIMURIUM, Strain/Indicator: TA98, Metabolic Activation: RAT, LIVER, S-9, AROCLOR 1254 (10%), Method: PREINCUBATION) is “inactive; negative”; the mutagenic call (Test System: AMES SALMONELLA TYPHIMURIUM, Strain/Indicator: TA98, Metabolic Activation: RAT, LIVER, S-9, AROCLOR 1254 (30%), Method: PREINCUBATION) was “inactive; negative”; the mutagenic call (Test System: AMES SALMONELLA TYPHIMURIUM, Strain/Indicator: TA100, Metabolic Activation: HAMSTER, LIVER, S-9, AROCLOR 1254 (10%), Method: PREINCUBATION) was “inactive; negative”; the mutagenic call (Test System: AMES SALMONELLA TYPHIMURIUM, Strain/Indicator: TA100, Metabolic Activation: HAMSTER, LIVER, S-9, AROCLOR 1254 (30%), Method: PREINCUBATION) was “inactive; negative”. Further, the mutagenic call is, setting by setting: (Test System: AMES SALMONELLA TYPHIMURIUM, Strain/Indicator: TA100, Metabolic Activation: NONE, Method: PREINCUBATION) “inactive; negative”; (Test System: AMES SALMONELLA TYPHIMURIUM, Strain/Indicator: TA100, Metabolic Activation: RAT, LIVER, S-9, AROCLOR 1254 (10%), Method: PREINCUBATION) “inactive; negative”; (Test System: AMES SALMONELLA TYPHIMURIUM, Strain/Indicator: TA100, Metabolic Activation: RAT, LIVER, S-9, AROCLOR 1254 (30%), Method: PREINCUBATION) “inactive; negative”; (Test System: AMES SALMONELLA TYPHIMURIUM, Strain/Indicator: TA1535, Metabolic Activation: HAMSTER, LIVER, S-9, AROCLOR 1254 (10%), Method: PREINCUBATION) “inactive; negative”; (Test System: AMES SALMONELLA TYPHIMURIUM, Strain/Indicator: TA1535, Metabolic Activation: HAMSTER, LIVER, S-9, AROCLOR 1254 (30%), Method: PREINCUBATION) “inactive; negative”; (Test System: AMES SALMONELLA TYPHIMURIUM, Strain/Indicator: TA1535, Metabolic Activation: NONE, Method: PREINCUBATION) “inactive; negative”. Moreover, the mutagenic call reads like this: (Test System: AMES SALMONELLA TYPHIMURIUM, Strain/Indicator: TA1535, Metabolic Activation: RAT, LIVER, S-9, AROCLOR 1254 (10%), Method: PREINCUBATION) “inactive; negative”; (Test System: AMES SALMONELLA TYPHIMURIUM, Strain/Indicator: TA1535, Metabolic Activation: RAT, LIVER, S-9, AROCLOR 1254 (30%), Method: PREINCUBATION) “inactive; negative”; (Test System: AMES SALMONELLA TYPHIMURIUM, Strain/Indicator: TA1537, Metabolic Activation: HAMSTER, LIVER, S-9, AROCLOR 1254 (30%), Method: PREINCUBATION) “inactive; negative”; (Test System: AMES SALMONELLA TYPHIMURIUM, Strain/Indicator: TA1537, Metabolic Activation: NONE, Method: PREINCUBATION) “inactive; negative”; (Test System: AMES SALMONELLA TYPHIMURIUM, Strain/Indicator: TA1537, Metabolic Activation: RAT, LIVER, S-9, AROCLOR 1254 (30%), Method: PREINCUBATION) “inactive; negative”.
Regarding `CCN(C(=S)[S-])c1ccccc1.CCN(C(=S)[S-])c1ccccc1.[Zn+2]`, the mutagenic call is, setting by setting: under setting [1], “inactive; negative”; (Test System: AMES SALMONELLA TYPHIMURIUM, Strain/Indicator: TA98, Metabolic Activation: S-9, Method: STANDARD PLATE) “inactive; negative”; under setting [2], “inactive; negative”; (Test System: AMES SALMONELLA TYPHIMURIUM, Strain/Indicator: TA100, Metabolic Activation: S-9, Method: STANDARD PLATE) “inactive; negative”.
`Nc1ncnc2c1ncn2[C@@H]1O[C@H](CO)[C@@H](O)[C@H]1O`: the mutagenic call runs as follows: (Test System: AMES SALMONELLA TYPHIMURIUM, Strain/Indicator: TA97, Metabolic Activation: NONE, Method: STANDARD PLATE) “inactive; negative”; (Test System: AMES SALMONELLA TYPHIMURIUM, Strain/Indicator: TA97, Metabolic Activation: RAT, LIVER, S-9, AROCLOR 1254, Method: STANDARD PLATE) “inactive; negative”; under setting [1], “inactive; negative”; under setting [3], “inactive; negative”; under setting [2], “inactive; negative”; (Test System: AMES SALMONELLA TYPHIMURIUM, Strain/Indicator: TA100, Metabolic Activation: RAT, LIVER, S-9, AROCLOR 1254, Method: STANDARD PLATE) “inactive; negative”. Further, the mutagenic call by setting is: (Test System: AMES SALMONELLA TYPHIMURIUM, Strain/Indicator: TA1535, Metabolic Activation: NONE, Method: STANDARD PLATE) “inactive; negative”; (Test System: AMES SALMONELLA TYPHIMURIUM, Strain/Indicator: TA1535, Metabolic Activation: RAT, LIVER, S-9, AROCLOR 1254, Method: STANDARD PLATE) “inactive; negative”; under setting [4], “inactive; negative”; under setting [5], “inactive; negative”; (Test System: CHINESE HAMSTER OVARY, Strain/Indicator: CHO-KL-BH4 (HGPRT), Metabolic Activation: NONE) “inactive; negative”; (Test System: CHINESE HAMSTER OVARY, Strain/Indicator: CHO-KL-BH4 (HGPRT), Metabolic Activation: RAT, LIVER, S-9, AROCLOR 1254) “inactive; negative”.
`CC(=O)Nc1ccc([N+](=O)[O-])cc1`: the mutagenic call is “inactive; negative” (Test System: AMES SALMONELLA TYPHIMURIUM, Strain/Indicator: TA98(NR), Metabolic Activation: NONE, Method: STANDARD PLATE); “inactive; negative” (Test System: AMES SALMONELLA TYPHIMURIUM, Strain/Indicator: TA98(NR), Metabolic Activation: RAT, LIVER, S-9, AROCLOR 1254, Method: STANDARD PLATE); “inactive; negative” under setting [1]; “inactive; negative” under setting [3]; “inactive; negative” (Test System: AMES SALMONELLA TYPHIMURIUM, Strain/Indicator: TA1538(NR), Metabolic Activation: NONE, Method: STANDARD PLATE); “inactive; negative” (Test System: AMES SALMONELLA TYPHIMURIUM, Strain/Indicator: TA1538(NR), Metabolic Activation: RAT, LIVER, S-9, AROCLOR 1254, Method: STANDARD PLATE). The mutagenic call by setting is: under setting [4], “inactive; negative”; under setting [5], “inactive; negative”.
On to `CC(=O)N(O)c1ccc(Oc2c(Cl)cc(Cl)cc2Cl)cc1`, for which the mutagenic call is “inactive; negative” under setting [2] and “active; positive” (Test System: AMES SALMONELLA TYPHIMURIUM, Strain/Indicator: TA100, Metabolic Activation: RAT, LIVER, S-9, KANECLOR 500, Method: STANDARD PLATE).
